From US12053476B2, “Compounds, compositions and methods for cancer patient stratification and cancer treatment” (BAYER PHARMA AKTIENGESELLSCHAFT, priority 2016, dated 2024)

Key:
[1] = tested on: A549; experiment: Cell proliferation measurement (Cell Titer Glo, 72 h); type: cell-based; details: Homo sapiens, A549, lung adenocarcinoma
Procedure: (§1) The antiproliferative activity of the compounds of the general formula (I) was examined in vitro in human cancer cells. For this purpose, 1000 cells were plated in 384-well plates with appropriate growth medium and incubated at 37° C. overnight. After 24 h, cells on one plate (0 h plate) were treated with 30 μl/cavity of CTG solution (Promega Cell Titer Glo (catalogue #G755B and G756B)) and incubated at room temperature for 10 min, and luminescence was measured by means of a VICTOR V (Perkin Elmer), in order to determine cell viability on commencement of treatment. The cells on the test plate were treated with the compounds of the general formula (I) as and incubated at 37° C. for 72 h. The compounds were added to the cells by means of an HP D300 digital dispenser in a 10-step 2,5-fold dilution series. As control, the cells were treated with vehicle (DMSO at 0.3% final concentration). After 72 h, the cells were treated with 30 μl/cavity of CTG solution (Promega Cell Titer Glo (catalogue #G755B and G756B)) and incubated at room temperature for 10 min, and luminescence was measured by means of a VICTOR V (Perkin Elmer), in order to determine cell viability at the end of treatment. The percentage effect on cell growth and the IC50 derived therefrom were determined for each test substance using the values from the 0 h plate (=maximum inhibition) and the DMSO control (=minimum inhibition). The IC50 values were calculated using a 4-parameter fit.

[2] = tested on: HeLa; experiment: as above; type: cell-based; details: Homo sapiens, cervical cancer
Procedure: as §1

[3] = tested on: SKMEL3; experiment: as above; type: cell-based; details: Homo sapiens, SK-MEL3, SKMEL3, melanoma
Procedure: as §1

[4] = tested on: HeLa cells; experiment: Compound sensitivity testing in cell lines (cell viability, 48 h); type: cell-based, human; details: 48 h
Procedure: (§2) 1500 NCI-H1734 or 1000 A549 cells were plated in a 384-well plate in 40 μl of RPMI supplemented with 10% Fetal Bovine Serum and 1% Pen/Strep. 24 hours after plating, a compound-library of 1924 small molecules was added at a concentration of 10 μM. Staurosporine was used a positive control for cytotoxicity at a concentration of 10 μM, and DMSO was used a negative control at a concentration of 1%. All compounds were incubated for 48 hours with indicated small molecules. After 48 hours, 384-well plates were removed from the incubator and allowed to cool to room temperature for 20 minutes. Cell viability was assessed by adding 40 μl of a 25% CELLTITERGLO® (Promega) in PBS with a THERMO COMBI™ or multichannel-pipette and incubated for 10 minutes. The luminescence signal was read using a Perkin-Elmer EnVision. Viability percentage was calculated by normalizing to DMSO controls.
1000 HeLa (DMEM), 1000 A549 (RPMI), 500 MCF-7 (DMEM), 4000 PC3 (F12-K), 1000 NCI-H2122 (RPMI) or 1500 NCI-H1563 (RPMI) cells were plated in a 384-well plate in 40 μl of corresponding growth media supplemented with 10% Fetal Bovine Serum. 24 hours after plating, indicated compounds were added at indicated concentrations and incubated for 48 hours. Cell viability was assessed as described in Compound library screening in NCI-H1734 and A549 cell lines.

[5] = target: T1, human full length PDE3A (Homo sapiens, UniProt Q14432); experiment: PDE3A enzyme inhibition (3H-cAMP Scintillation Proximity Assay); type: biochemical; details: Sf9 cell extract, 60 min
T1 construct: Sf9 cells overexpressing human full length PDE3A (SB Drug Discovery, UK); purchased SB Drug Discovery, UK; host or cells: Sf9
T1 sequence (Q14432 whole entry): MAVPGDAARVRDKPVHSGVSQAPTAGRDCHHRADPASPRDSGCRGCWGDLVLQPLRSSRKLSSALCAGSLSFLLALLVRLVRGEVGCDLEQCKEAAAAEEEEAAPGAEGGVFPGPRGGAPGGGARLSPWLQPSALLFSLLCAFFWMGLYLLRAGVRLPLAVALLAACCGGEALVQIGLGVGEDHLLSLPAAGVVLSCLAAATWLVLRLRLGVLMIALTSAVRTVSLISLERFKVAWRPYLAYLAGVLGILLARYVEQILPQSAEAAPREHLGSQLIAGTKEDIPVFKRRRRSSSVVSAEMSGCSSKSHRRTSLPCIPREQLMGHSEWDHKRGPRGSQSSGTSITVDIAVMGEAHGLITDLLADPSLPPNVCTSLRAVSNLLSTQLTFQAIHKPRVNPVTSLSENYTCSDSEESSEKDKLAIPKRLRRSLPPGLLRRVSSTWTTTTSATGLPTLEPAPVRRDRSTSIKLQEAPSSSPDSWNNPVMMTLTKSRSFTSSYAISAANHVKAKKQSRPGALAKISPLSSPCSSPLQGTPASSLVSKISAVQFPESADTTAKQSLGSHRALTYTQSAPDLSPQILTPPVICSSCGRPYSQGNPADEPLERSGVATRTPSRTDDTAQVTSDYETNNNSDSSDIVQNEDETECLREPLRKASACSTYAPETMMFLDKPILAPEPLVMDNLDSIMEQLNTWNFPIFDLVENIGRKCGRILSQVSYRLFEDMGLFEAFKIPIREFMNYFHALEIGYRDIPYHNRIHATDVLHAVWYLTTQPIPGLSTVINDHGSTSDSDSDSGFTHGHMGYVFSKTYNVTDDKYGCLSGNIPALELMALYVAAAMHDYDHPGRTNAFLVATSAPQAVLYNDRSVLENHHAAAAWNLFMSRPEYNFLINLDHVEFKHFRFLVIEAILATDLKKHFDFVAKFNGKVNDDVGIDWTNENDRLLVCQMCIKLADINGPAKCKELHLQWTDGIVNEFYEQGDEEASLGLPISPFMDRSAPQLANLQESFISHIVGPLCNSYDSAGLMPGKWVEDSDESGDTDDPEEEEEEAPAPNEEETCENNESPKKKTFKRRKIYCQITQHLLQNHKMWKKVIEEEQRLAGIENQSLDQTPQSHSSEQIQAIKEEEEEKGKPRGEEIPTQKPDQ
Procedure: The commercially available ^3H-cAMP Scintillation Proximity Assay (SPA, Perkin Elmer) system was used for enzyme inhibition studies. For the determination of the in vitro effect of test substances on the PDE3A reactions 2 μl of the respective test compound solution in DMSO (serial dilutions) were placed in wells of microtiter plates (Isoplate-96/200W; Perkin Elmer). 50 μl of a dilution of PDE3A cell extract from Sf9 cells overexpressing human full length PDE3A (SB Drug Discovery, UK) in buffer A (50 mM Tris/HCl pH 7.5, 8.3 mM MgCl2, 1.7 mM EDTA, 0.2% BSA) was added. The dilution of the PDE3A cell extract was chosen such that the reaction kinetics was linear and less than 70% of the substrate was consumed (typical dilution 1:5000). The reaction was started by addition of 50 μl (0.025 μCi) of 1:2000 in buffer A w/o BSA diluted substrate [8-^3H] adenosine 3′, 5′-cyclic phosphate (1 μCi/μl; Perkin Elmer). After incubation at room temperature for 60 min, the reaction was stopped by addition of 25 μl of a suspension containing 18 mg/ml yttrium scintillation proximity beads (Perkin Elmer) in water. The microtiter plates were sealed and measured in a Microbeta scintillation counter (PerkinElmer Wallac). IC50 values were determined from sigmoidal curves by plotting percentage PDE3A activity vs log compound concentration.

[6] = target: T2, PDE3B (Homo sapiens, UniProt Q13370); experiment: PDE3B enzyme inhibition (reported with the 3H-cAMP SPA method); type: biochemical
T2 construct: Caliper (ran the assay)
T2 sequence (Q13370 whole entry, species assumed): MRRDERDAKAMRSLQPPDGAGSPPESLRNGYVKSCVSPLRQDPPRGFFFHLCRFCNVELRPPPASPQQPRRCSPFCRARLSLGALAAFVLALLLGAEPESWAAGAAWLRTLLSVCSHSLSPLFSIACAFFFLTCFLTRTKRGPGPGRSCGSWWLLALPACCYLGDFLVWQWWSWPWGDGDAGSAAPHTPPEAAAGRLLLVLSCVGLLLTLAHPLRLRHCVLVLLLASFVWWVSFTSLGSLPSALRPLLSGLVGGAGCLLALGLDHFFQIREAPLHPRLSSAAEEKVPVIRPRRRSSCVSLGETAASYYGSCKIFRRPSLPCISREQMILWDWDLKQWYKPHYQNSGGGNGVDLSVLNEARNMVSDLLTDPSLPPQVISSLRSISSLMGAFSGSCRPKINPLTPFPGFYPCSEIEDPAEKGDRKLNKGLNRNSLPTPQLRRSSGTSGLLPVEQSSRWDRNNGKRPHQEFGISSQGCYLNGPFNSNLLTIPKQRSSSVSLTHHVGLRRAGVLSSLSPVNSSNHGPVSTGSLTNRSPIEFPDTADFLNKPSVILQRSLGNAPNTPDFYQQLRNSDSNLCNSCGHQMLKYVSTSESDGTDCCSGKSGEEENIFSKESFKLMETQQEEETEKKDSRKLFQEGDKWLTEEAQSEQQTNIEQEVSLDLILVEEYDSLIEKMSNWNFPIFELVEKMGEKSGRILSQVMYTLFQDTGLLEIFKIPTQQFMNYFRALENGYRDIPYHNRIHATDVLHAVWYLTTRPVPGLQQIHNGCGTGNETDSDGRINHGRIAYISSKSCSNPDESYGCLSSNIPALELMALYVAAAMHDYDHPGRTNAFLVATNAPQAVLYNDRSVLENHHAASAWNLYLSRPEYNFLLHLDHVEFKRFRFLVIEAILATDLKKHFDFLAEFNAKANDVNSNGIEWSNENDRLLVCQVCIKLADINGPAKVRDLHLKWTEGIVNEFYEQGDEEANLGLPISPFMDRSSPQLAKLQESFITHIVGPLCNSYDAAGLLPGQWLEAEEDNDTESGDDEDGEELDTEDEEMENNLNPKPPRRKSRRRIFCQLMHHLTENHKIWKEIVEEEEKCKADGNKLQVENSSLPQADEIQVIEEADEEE

[7] = In vitro metabolic stability in cryopreserved human hepatocytes; type: in vitro ADME; details: 1 μM test compound
Procedure: Investigation of In Vitro Metabolic Stability in Cryopreserved Human Hepatocytes (Including Calculation of Hepatic In Vivo Blood Clearance (CL) and Maximal Oral Bioavailability (Fmax))
Cryopreserved Hepatocytes (e.g. purchased from Celsis InVitroTechnologies) were briefly thawed, washed with 45 mL pre-warmed in in vitro GRO HT medium and centrifuged for 5 min at 50×g. The cell pellet was resuspended in 5 ml of Krebs-Henseleit […] (KHB). Cell viability was determined by trypan blue exclusion.
For the metabolic stability assay liver cells were distributed in WME containing 5% FCS to glass vials at a density of 1.0×10^6 vital cells/ml. The test compound was added to a final concentration of 1 μM. During incubation, the hepatocyte suspensions were continuously shaken at 580 rpm and aliquots were taken at 2, 8, 16, 30, 45 and 90 min, to which equal volumes of cold methanol were immediately added. Samples were frozen at −20° C. over night, after subsequently centrifuged for 15 minutes at 3000 rpm and the supernatant was analyzed with an Agilent 1290 HPLC-system with LCMS/MS detection.
The half-life of a test compound was determined from the concentration-time plot. From the half-life the intrinsic clearances were calculated. […] The hepatic in vivo blood clearance (CL) and the maximal oral bioavailability (Fmax) was calculated.

[8] = tested on: NCI-H1734; experiment: Compound library screening in NCI-H1734 and A549 cell lines; type: cell-based, human; details: NCI-H1734 versus A549, 48 h
Procedure: To identify anti-cancer compounds with cell-selective cytotoxic activity, an unbiased chemical screen was performed in two lung adenocarcinoma cell lines, A549 and NCI-H1734, both of which harbor oncogenic KRAS mutations and truncating STK11 mutations, and which were TP53 wild type and mutant (R273L), respectively. 1,924 compounds were screened from the Molecular Libraries Small-Molecule Repository validation set in the A549 and NCI-H1734 cell lines at a single concentration of 10 μM in 384-well format in duplicate. As a proxy for cellular viability, ATP content was measured after 48 hours of compound treatment.
as §2, with “After 48 hours, 384-well plates were removed from the incubator and allowed to cool to room temperature for 20 minutes.” left out

[9] = target: T3, PDE3A(677-1141) (Homo sapiens, UniProt Q14432); experiment: Differential scanning fluorimetry (DSF) binding to purified PDE3A catalytic domain; details: 5 μM PDE3A, 100 μM compound
T3 construct: purified PDE3A catalytic domain, PDE3A(677-1141)
T3 sequence (Q14432 677-1141): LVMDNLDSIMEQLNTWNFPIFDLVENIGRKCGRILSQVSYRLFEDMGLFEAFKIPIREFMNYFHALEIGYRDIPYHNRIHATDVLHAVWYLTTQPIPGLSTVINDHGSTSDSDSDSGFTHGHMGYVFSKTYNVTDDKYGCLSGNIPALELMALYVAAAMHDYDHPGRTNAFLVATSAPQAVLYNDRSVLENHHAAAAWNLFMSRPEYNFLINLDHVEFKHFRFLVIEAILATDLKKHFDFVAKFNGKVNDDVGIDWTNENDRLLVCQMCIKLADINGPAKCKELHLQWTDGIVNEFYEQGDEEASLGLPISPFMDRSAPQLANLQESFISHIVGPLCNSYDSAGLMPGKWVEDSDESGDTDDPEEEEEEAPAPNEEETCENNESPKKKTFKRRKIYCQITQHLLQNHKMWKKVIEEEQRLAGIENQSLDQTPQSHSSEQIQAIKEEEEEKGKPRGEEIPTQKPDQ
Procedure: Binding buffer: 20 mM Hepes pH 7.4, 100 μM TCEP, 1 mM MgCl2, 150 mM NaCl.

[10] = target: T4, PDE3A and SLFN12 complex (Homo sapiens, UniProt Q14432); experiment: DNMDP-induced PDE3A protein interactions by immunoprecipitation and immunoblotting; type: cell-based; details: HeLa cells, 10 μM, 4 hours
T4 construct: Immunoprecipitation of endogenous PDE3A in HeLa cells treated with DNMDP; host or cells: HeLa
T4 sequence (Q14432 whole entry): as the sequence (Q14432 whole entry) above
T4 sequence (Q8IYM2 whole entry partner): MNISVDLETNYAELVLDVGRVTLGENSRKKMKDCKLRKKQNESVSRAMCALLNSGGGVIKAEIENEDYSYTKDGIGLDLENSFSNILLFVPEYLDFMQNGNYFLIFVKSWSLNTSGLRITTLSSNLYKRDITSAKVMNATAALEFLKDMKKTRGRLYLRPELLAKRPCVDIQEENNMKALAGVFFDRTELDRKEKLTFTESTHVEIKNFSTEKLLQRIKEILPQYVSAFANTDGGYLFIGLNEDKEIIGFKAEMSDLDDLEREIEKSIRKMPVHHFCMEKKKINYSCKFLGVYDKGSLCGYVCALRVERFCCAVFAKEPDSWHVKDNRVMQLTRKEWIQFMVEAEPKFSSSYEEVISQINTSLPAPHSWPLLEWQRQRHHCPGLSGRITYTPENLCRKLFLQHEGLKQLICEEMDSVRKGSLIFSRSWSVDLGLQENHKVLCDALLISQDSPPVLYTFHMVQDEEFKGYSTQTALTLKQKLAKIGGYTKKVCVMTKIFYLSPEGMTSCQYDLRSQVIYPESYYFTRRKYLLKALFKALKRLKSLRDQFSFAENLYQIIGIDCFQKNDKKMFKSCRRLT
Text: Binding of DNMDP altered the composition of interacting proteins that were co-immunoprecipitated with PDE3A. […] These proteins specifically interacted with PDE3A in the presence of DNMDP, and were not observed in the trequinsin treated control, whereas a known PDE3B interactor, abhydrolase domain-containing protein 15 (ABHD15, Chavez et al., Biochem. Biophys. Res. Commun. 342, 1218-1222, 2006), was enriched in the immunoprecipitate from trequinsin-treated cells (FIG. 13C and FIG. 14C). The interaction promoted by DNMDP between PDE3A and both SIRT7 and SLFN12 was validated with affinity reagents. Immunoprecipitation of endogenous PDE3A in HeLa cells treated with DNMDP, but not DMSO or trequinsin, enhanced complex formation of ectopically expressed V5-tagged SIRT7 and SLFN12 with PDE3A, as evidenced by coimmunoprecipitation (FIG. 19). […] Without being bound to theory, PDE3A/SLFN12 complex formation correlated with cell killing (FIGS. 21A-21C).
HeLa cells were transfected with ORF overexpression constructs expressing V5-tagged SIRT7, V5-tagged SLFN12, or V5-tagged GFP. ORF expression constructs were obtained from the TRC (clone IDs: TRCN0000468231, TRCN0000476272, ccsbBroad304_99997). At 72 hours post transfection, cells were treated with 10 μM DNMDP or trequinsin for 4 hours followed by lysis using the ModRipa lysis buffer and immunoprecipitation of PDE3A. […]

[11] = tested on: HeLa cells; experiment: Caspase activity in HeLa cells (Caspase-Glo); type: cell-based, human; details: 48 h
Procedure: Thus one aspect of the invention is the use of DNMDP for the treatment of lung adenocarcinoma and cervical cancer.
1000 HeLa cells were plated in 384-well plate in 40 μl of corresponding growth media supplemented with 10% Fetal Bovine Serum. 24 hours after plating, indicated compounds were added at indicated concentrations and incubated for 48 hours. Caspase-Glo from Promega was added according to the manufacturers recommendations and luminescence was determined as described in Compound library screening in NCI-H1734 and A549 cell lines.

Row | SMILES | IC50 [1] | IC50 [2] | IC50 [3] | EC50 ([4]; Homo sapiens) | IC50 [5] | IC50 [6] | mean metabolic stability (Fmax) [7] | EC70 HeLa cell viability [4] | selective toxicity in dose-response retest (in words) [8] | Tm [9] | PDE3A and SLFN12 complex formation [10] | caspase activity (apoptosis) [11]
1 | C[C@@H]1CC(=O)NN=C1c1cc(F)c(N2CCOCC2)c(Cl)c1 [Compound 6, (5R)-6-[3-chloro-5-fluoro-4-(morpholin-4-yl)phenyl]-5-methyl-4,5-dihydropyridazin-3(2H)-one] | > 600 nM | 0.327 nM | 0.441 nM | 1.1 nM | 2.4 nM | 3.4 nM | 93% |  |  |  |  | 
2 | CCN(CC)c1ccc(C2=NNC(=O)CC2C)cc1[N+](=O)[O-] (stereo not drawn) [DNMDP, 6-(4-(diethylamino)-3-nitrophenyl)-5-methyl-4,5-dihydropyridazin-3(2H)-one] |  |  |  |  |  |  |  | 30 nM | specifically toxic to the NCI-H1734 cell line | 58.4 ± 0.0 °C | induced PDE3A and SFLN12 complex formation | Caspase activity was detected
